The text below walks through data of the supplement of paper PMC10290057.

Where a name gives a salt, the structure may show the parent alone.

Assay [1] deals with HCT116. Briefly: AC50 cell viability (CellTiter-Glo); higher = less potent. The conditions noted are these: 48 h. Background: Cellular ATP, detected with luciferase, serves as a proxy for viable cell number.
Assay [2] relates to HCT116. In words: efficacy (fitted maximal change in viability relative to DMSO control); higher = less cytotoxic (negative = loss of viability). The conditions noted are these: 48 h.
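Throughout, for AC50 cell viability (CellTiter-Glo): HCT116 colorectal carcinoma cells screened at five concentrations per compound, luminescent viability scaled between DMSO wells and empty wells on each plate, curves fitted per compound.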
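Throughout, for efficacy (fitted maximal change in viability relative to DMSO control): Luminescence-based viability readout, five doses per compound, normalized against on-plate DMSO and empty-well controls, followed by dose-response curve fitting for every drug.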

With `O=[S+]([O-])(Nc1ccc(-c2cccnc2)c2cccnc12)c1cccc(C(F)(F)F)c1` [Compound 22d], in assay [1], the AC50 cell viability was found to be 4.17 µM. In assay [2], the efficacy was -73.3%.

For `Cc1nc2c([nH]1)-c1ccccc1N(C(=O)c1ccc(NC(=O)c3ccccc3-c3ccccc3)cc1)CC2` [Conivaptan hydrochloride], the AC50 cell viability in assay [1] was 20.9 µM. The efficacy in assay [2] was -45.3%.

In the case of `COC1=C(OCCCN2CCOCC2)C=CC\3=C1/N=C(/NC(=O)C4=CN=C(N)N=C4)N5CC/N=C35` [Copanlisib], in assay [1], the AC50 cell viability was 0.0679 µM. In assay [2], the efficacy was -57.4%.

In assay [1], `C=C1C(=O)OC2/C=C(/C)CC/C=C(/C)CCC12` (configuration not stated) [Costunolide] came in with an AC50 cell viability of 20.9 µM. The efficacy in assay [2] was -86.2%.

`C[C@H](NC(=O)CCC(F)(F)F)C(=O)N[C@@H]1C(=O)N(CCO)c2ncccc2-c2ccccc21` [Crenigacestat] returned an AC50 cell viability in assay [1] of 0.332 µM. Moreover, in assay [2], the efficacy is -44.7%.

Regarding `CC1(COc2ccc3c(c2)ncn3-c2ccc3cccc(N4CCC(N)CC4)c3n2)COC1` [Crenolanib], in assay [1], the AC50 cell viability came to 2.95 µM. Moreover, in assay [2], the efficacy is -104%.

As for `C[C@@H](Oc1cc(-c2cnn(C3CCNCC3)c2)cnc1N)c1c(Cl)ccc(F)c1Cl` [Crizotinib], the AC50 cell viability in assay [1] was 4.17 µM. The efficacy in assay [2] is -100%.

Take `CC(C)(O)/C=C\C(=O)[C@](C)(O)[C@H]1[C@H](O)C[C@]2(C)[C@@H]3CC=C4[C@@H](C=C(O)C(=O)C4(C)C)[C@]3(C)C(=O)C[C@@]12C` [Cucurbitacin I]: the AC50 cell viability in assay [1] amounted to 0.166 µM. Further, the efficacy in assay [2] was -77.1%.

The molecule `COc1cc(/C=C/C(=O)CC(=O)/C=C/c2ccc(O)c(OC)c2)ccc1O` [Curcumin] gave an AC50 cell viability in assay [1] of 4.17 µM. In addition, the efficacy in assay [2] is -68%.

Turning to `C[C@H]1CCC/C=C/C2C[C@H](O)C[C@H]2[C@H](O)/C=C/C(=O)O1` (some centres not stated) [Cyanein], the AC50 cell viability in assay [1] was found to be 0.235 µM. Moreover, in assay [2], the efficacy was -91.1%.

In assay [1], `CN(C)CCC=C1C2=C(C=CC=C2)\C=C/C3=C1C=CC=C3` [Cyclobenzaprine hydrochloride] yielded an AC50 cell viability of 18.6 µM. Besides, the efficacy in assay [2] was -92.3%.

The molecule `OC[C@H]1O[C@@H]2[C@@H](OC\3=N\C(=N)\C=C/[N@@]23)[C@@H]1O` [Cyclocytidine hydrochloride] displayed an AC50 cell viability in assay [1] of 0.186 µM. In addition, the efficacy in assay [2] was -59.3%.

Molecule `C[C@@H]1C[C@@H]([C@H](O)CC2CC(=O)NC(=O)C2)C(=O)[C@@H](C)C1` [Cycloheximide] displayed an AC50 cell viability in assay [1] of 0.468 µM. For the same molecule, the efficacy in assay [2] is -68.6%.

In the case of `CN1CCC(CC1)=C2C3=C(C=CC=C3)\C=C/C4=C2C=CC=C4` [Cyproheptadine hydrochloride], in assay [1], the AC50 cell viability came to 23.5 µM. In addition, in assay [2], the efficacy was -81.9%.

On to `NC\1=N\C(=O)N(\C=C1)[C@@H]2O[C@H](CO)[C@@H](O)[C@@H]2O` [Cytarabine], for which, in assay [1], the AC50 cell viability amounted to 0.0742 µM. For the same molecule, the efficacy in assay [2] is -61.7%.

Regarding `CCCCCCCCCCCCCC(=O)N[C@H](CO)[C@H](O)c1ccc([N+](=O)[O-])cc1` [D-NMAPPD], the AC50 cell viability in assay [1] came to 26.3 µM. In assay [2], the efficacy is -101%.

In assay [1], `ClC/1=C(NCCN2CCOCC2)/C(=O)C3=C(C=CC=N3)C1=O` [DA-3003-1] came in with an AC50 cell viability of 5.9 µM. Further, in assay [2], the efficacy is -90.7%.

Consider `Nc1cccc([S+](=O)([O-])N2CCCN([S+](=O)([O-])c3ccc4c(c3)OCCO4)CC2)c1` [DASA-58], for which, in assay [1], the AC50 cell viability was found to be 14.8 µM. The efficacy in assay [2] is -59.9%.

`CNC(=O)c1cc(Oc2ccc(NC(=O)Nc3cc(C(C)(C)C)nn3-c3ccc4ncccc4c3)c(F)c2)ccn1` [DCC-2036] displayed an AC50 cell viability in assay [1] of 11.8 µM. In addition, the efficacy in assay [2] was -76%.

As for `CCCCCN(CCC12CC3CC(CC(C3)C1)C2)C(=O)NCCCc1ccncc1` [DE-096], the AC50 cell viability in assay [1] came to 16.6 µM. In assay [2], the efficacy was -90.2%.

Take `COc1cc([C@@H]2c3cc4c(cc3[C@@H](O)C3COC(=O)C32)OCO4)cc(OC)c1O` (some centres not stated) [DMEP]: the AC50 cell viability in assay [1] was determined as 0.235 µM. Moreover, the efficacy in assay [2] was -52.3%.

The molecule `CN(C)/N=N/c1nc[nH]c1C(N)=O` [Dacarbazine] yielded an AC50 cell viability in assay [1] of 10.5 µM. Moreover, the efficacy in assay [2] is -45.8%.

Take `O=C(/C=C/c1ccc(CN(CCO)CCc2c[nH]c3ccccc23)cc1)NO` [Dacinostat]: in assay [1], the AC50 cell viability amounted to 0.0833 µM. For the same molecule, the efficacy in assay [2] was -89.1%.

In turn, `COc1cc2ncnc(Nc3ccc(F)c(Cl)c3)c2cc1NC(=O)/C=C/CN1CCCCC1` [Dacomitinib] displayed an AC50 cell viability in assay [1] of 8.33 µM. Besides, in assay [2], the efficacy was -99.1%.

With `CO[C@@H](C(=O)N1Cc2[nH]nc(NC(=O)c3ccc(N4CCN(C)CC4)cc3)c2C1)c1ccccc1` [Danusertib], the AC50 cell viability in assay [1] came out at 1.66 µM. The efficacy in assay [2] was -71.4%.

Turning to `O=C(/C=C/c1cccnc1)NCCCCC1CCN(C(=O)c2ccccc2)CC1` [Daporinad], in assay [1], the AC50 cell viability was found to be 0.00525 µM. For the same molecule, the efficacy in assay [2] was -94.1%.
